Measured values taken from article PMC7539012, “Hyperphosphorylated tau aggregation and cytotoxicity modulators screen identified prescription drugs linked to Alzheimer's disease and cognitive functions” (Scientific Reports, 2020).
Structures can show the parent of a compound that is named as a salt.

Tested on: T1, 1N4R p-tau
T1 construct: made in house; host or cells: E. coli (PIMAX system)
Experiment: p-tau aggregation modulator screen of 1280-compound library (ThS fluorescence net change over 16 h);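 as to ThS net change: 30 µM compound with 6 µM p-tau over 16 h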
Assay type: biochemical
Set-up: key to PTAI>2SD: *: PTAI>2SD
Details: not given

SMILES	ThS net change
CCC(=O)O[C@@](Cc1ccccc1)(c1ccccc1)[C@@H](C)CN(C)C [Levopropoxyphene napsylate]	434
CCN(CC)CC(=O)Nc1c(C)cccc1C [Lidocaine hydrochloride]	271
COc1cccc(N(C)C(=S)Oc2ccc3c(c2)CCCC3)n1 [Liranaftate]	435
CN(C)C(=O)C(CCN1CCC(O)(c2ccc(Cl)cc2)CC1)(c1ccccc1)c1ccccc1 [Loperamide hydrochloride]	326

Same assay, conditions: 1280-compound library screen; ThS fluorescence net change over 16 h

SMILES	ThS net change
Nc1nnc(-c2cccc(Cl)c2Cl)c(N)n1 [Lamotrigine]	389
CC[C@@H](C(N)=O)N1CCCC1=O [Levetiracetam]	407
CC(=O)NC[C@H]1CN(c2ccc(N3CCOCC3)c(F)c2)C(=O)O1 [Linezolid]	405
N#Cc1cc(NC(=O)C(=O)O)c(Cl)c(NC(=O)C(=O)O)c1 [Lodoxamide]	409
CC(Oc1c(Cl)cccc1Cl)C1=NCCN1 (centres unmarked) [Lofexidine]	408
CCn1cc(C(=O)O)c(=O)c2cc(F)c(N3CCNC(C)C3)c(F)c21 (centres unmarked) [Lomefloxacin hydrochloride]	390
CC[C@H](C)C(=O)O[C@H]1C[C@@H](C)C=C2C=C[C@H](C)[C@H](CC[C@@H]3C[C@@H](O)CC(=O)O3)[C@H]21 [Lovastatin]	408
C#C[C@]1(O)CC[C@H]2[C@@H]3CCC4=CCCC[C@@H]4[C@H]3CC[C@@]21C [Lynestrenol]	408
CC(=O)[C@H]1CC[C@H]2[C@@H]3C[C@H](C)C4=CC(=O)CC[C@]4(C)[C@H]3[C@@H](O)C[C@]12C [Medrysone]	388

Same assay, conditions: 1280-compound library screen; […]

SMILES	ThS net change
CC(=O)O[C@H]1C[C@H](O[C@H]2[C@@H](O)C[C@H](O[C@H]3[C@@H](O)C[C@H](O[C@H]4CC[C@@]5(C)[C@H](CC[C@@H]6[C@@H]5C[C@@H](O)[C@]5(C)[C@@H](C7=CC(=O)OC7)CC[C@]65O)C4)O[C@@H]3C)O[C@@H]2C)O[C@H](C)[C@H]1O[C@@H]1O[C@H](CO)[C@@H](O)[C@H](O)[C@H]1O [Lanatoside C]	411
C[C@H](N)[C@H](O)c1ccc(O)c(O)c1 [Levonordefrin]	387
CN1CCc2c(c3ccccc3n2Cc2ccccc2)C1.O=S(=O)(O)c1cccc2c(S(=O)(=O)O)cccc12 [Mebhydroline 1,5-naphtalenedisulfonate]	385

Same assay, conditions: flag: p-tau aggregation inhibitor, ThS net change more than 2 SD from mean

SMILES	PTAI>2SD
C=C1c2c(Cl)ccc(O)c2C(=O)C2=C(O)[C@]3(O)C(=O)C(C(N)=O)=C(O)[C@@H](N(C)C)[C@@H]3[C@@H](O)[C@H]12.O=C(O)c1cc(S(=O)(=O)O)ccc1O [Meclocycline sulfosalicylate]	*

Same assay, conditions: library screen, ThS fluorescence net change over 16 h with p-tau

SMILES	ThS net change
N[C@@H](Cc1cc(I)c(Oc2ccc(O)c(I)c2)c(I)c1)C(=O)O [Liothyronine]	298
O=c1cc(-c2ccc(O)c(O)c2)oc2cc(O)cc(O)c12 [Luteolin]	296
CCN(CCCCOC(=O)c1ccc(OC)c(OC)c1)C(C)Cc1ccc(OC)cc1 (centres unmarked) [Mebeverine hydrochloride]	295
C=C1c2c(Cl)ccc(O)c2C(=O)C2=C(O)[C@]3(O)C(=O)C(C(N)=O)=C(O)[C@@H](N(C)C)[C@@H]3[C@@H](O)[C@H]12.O=C(O)c1cc(S(=O)(=O)O)ccc1O [Meclocycline sulfosalicylate]	171
OC(c1cc(C(F)(F)F)nc2c(C(F)(F)F)cccc12)C1CCCCN1 (centres unmarked) [Mefloquine hydrochloride]	304

Same assay, conditions: p-tau aggregation modulator screen of 1280-compound library; ThS fluorescence net change

SMILES	ThS net change
CC(CCc1ccccc1)NCC(O)c1ccc(O)c(C(N)=O)c1 (centres unmarked) [Labetalol hydrochloride]	353
Cc1oncc1C(=O)Nc1ccc(C(F)(F)F)cc1 [Leflunomide]	344
c1ccc([C@H]2CN3CCSC3=N2)cc1 [Levamisole hydrochloride]	376
Cc1cccc(C)c1NC(=O)CN1CCN(CCCC(c2ccc(F)cc2)c2ccc(F)cc2)CC1 [Lidoflazine]	341
CCC[C@@H]1C[C@@H](C(=O)N[C@@H]([C@H]2O[C@H](SC)[C@H](O)[C@@H](O)[C@H]2O)[C@@H](C)O)N(C)C1 [Lincomycin hydrochloride]	367
NCCCC[C@H](N[C@@H](CCc1ccccc1)C(=O)O)C(=O)N1CCC[C@H]1C(=O)O [Lisinopril]	328
CN(CCCN1c2ccccc2CCc2ccccc21)CC(=O)c1ccc(Cl)cc1 [Lofepramine]	375
N[C@@H](C(=O)N[C@@H]1C(=O)N2C(C(=O)O)=C(Cl)CC[C@H]12)c1ccccc1 [Loracarbef]	361
CN1CCN(C2=Nc3ccccc3Oc3ccc(Cl)cc32)CC1 [Loxapine succinate]	358
CNCCCC12CCC(c3ccccc31)c1ccccc12 [Maprotiline hydrochloride]	370
COC(=O)Nc1nc2ccc(C(=O)c3ccccc3)cc2[nH]1 [Mebendazole]	340
Cc1cccc(Nc2ccccc2C(=O)O)c1C [Mefenamic acid]	353
CCN(CC)CCNC(=O)COc1ccc(OC)cc1.Cl [Mefexamide hydrochloride]	331

Same assay, conditions: p-tau aggregation modulator screen of 1280-compound library; […]

SMILES	ThS net change
CN(C)CCOC(=O)COc1ccc(Cl)cc1.Cl [Meclofenoxate hydrochloride]	359

Same assay, conditions: p-tau aggregation modulator screen of the compound library, ThS fluorescence net change

SMILES	ThS net change
CCOC(=O)C1=C(C)NC(C)=C(C(=O)OCC)C1c1ccccc1/C=C/C(=O)OC(C)(C)C [Lacidipine]	452
Nc1ccn([C@@H]2CS[C@H](CO)O2)c(=O)n1 [Lamivudine]	424
Cc1c(OCC(F)(F)F)ccnc1C[S+]([O-])c1nc2ccccc2[nH]1 (centres unmarked) [Lansoprazole]	510
CC(C)OC(=O)CCC/C=C\C[C@@H]1[C@@H](CC[C@@H](O)CCc2ccccc2)[C@H](O)C[C@@H]1O [Latanoprost]	519
N#Cc1ccc(C(c2ccc(C#N)cc2)n2cncn2)cc1 [Letrozole]	453
CC(C)(C)NC[C@H](O)c1ccc(O)c(CO)c1 [Levalbuterol hydrochloride]	422
C[C@@H]1CN([C@H]2CC[C@](C#N)(c3ccc(F)cc3)CC2)CC[C@]1(C(=O)O)c1ccccc1 [Levocabastine hydrochloride]	416
N[C@@H](Cc1ccc(O)c(O)c1)C(=O)O [Levodopa]	444
C[C@H](CCC(=O)O)[C@H]1CC[C@H]2[C@@H]3CC[C@@H]4C[C@H](O)CC[C@]4(C)[C@H]3CC[C@]12C [Lithocholic acid]	566
COc1ccc(CN2CCN(C(c3ccc(F)cc3)c3ccc(F)cc3)CC2)c(OC)c1OC.Cl [Lomerizine hydrochloride]	458
CCOC(=O)N1CCC(=C2c3ccc(Cl)cc3CCc3cccnc32)CC1 [Loratadine]	450
CCCCCN(CCCCC)C(=O)C(CCC(=O)[O-])NC(=O)c1ccc(Cl)c(Cl)c1.[Na+] (centres unmarked) [Lorglumide sodium salt]	520
CCCCc1nc(Cl)c(CO)n1Cc1ccc(-c2ccccc2-c2nn[nH]n2)cc1 [Losartan]	468
CCOC(=O)O[C@]1(C(=O)OCCl)CC[C@H]2[C@@H]3CCC4=CC(=O)C=C[C@]4(C)[C@H]3[C@@H](O)C[C@@]21C [Loteprednol etabonate]	531
NCc1ccc(S(N)(=O)=O)cc1 [Mafenide hydrochloride]	415
CNC1(C)C2CCC(C2)C1(C)C (centres unmarked) [Mecamylamine hydrochloride]	418
Cc1cccc(CN2CCN(C(c3ccccc3)c3ccc(Cl)cc3)CC2)c1.Cl.Cl (centres unmarked) [Meclozine dihydrochloride]	430
